In general, IC50 refers to the concentration that gives 50% inhibition.

The structures appear in SMILES notation. Where a name gives a salt, the structure may show the parent alone.
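Note: primary rat embryonic cortical neurons grown on an astrocyte layer in 96-well plates, used after at least 8 to 10 days in culture, Fura2-AM fluorescence ratio at 340/380 nm excitation.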

The subject of the assay is AMPA receptor. The settings on record: Table 2; suppression of AMPA-induced calcium influx into nerve cells.
Take `N#CCc1ccc(-n2cc(-c3ccccn3)cc(-c3ccccc3C#N)c2=O)cc1` [Example 150, 3-(2-Cyanophenyl)-5-(2-pyridyl)-1-(4-cyanomethylphenyl)-1,2-dihydropyridin-2-one]: the IC50 was found to be 300 nM.

In the case of `N#CCc1ccccc1-n1cc(-c2ccccn2)cc(-c2ccccc2C#N)c1=O` [Example 151, 3-(2-Cyanophenyl)-5-(2-pyridyl)-1-(2-cyanomethylphenyl)-1,2-dihydropyridin-2-one], the IC50 is 300 nM.

For the compound `CCS(=O)(=O)c1ccc(-n2cc(-c3ccccn3)cc(-c3ccccc3C#N)c2=O)cn1` [Example 152, 3-(2-Cyanophenyl)-5-(2-pyridyl)-1-(2-ethylsulfonylpyridin-5-yl)-1,2-dihydropyridin-2-one], the IC50 came out at 4000 nM.

Regarding `CN(C)Cc1ccccc1-c1cc(-c2ccccn2)cn(-c2ccccc2)c1=O` [Example 154, 3-(2-Dimethylaminomethylphenyl)-5-(2-pyridyl)-1-phenyl-1,2-dihydropyridin-2-one dihydrochloride], the IC50 was found to be 5000 nM.

As for `CCN(CC)Cc1cccc(-c2cc(-c3ccccc3C#N)c(=O)n(-c3ccccc3)c2)n1` [Example 157, 3-(2-Cyanophenyl)-5-(6-diethylaminomethyl-2-pyridyl)-1-phenyl-1,2-dihydropyridin-2-one], the IC50 turned out to be 500 nM.

In the case of `N#Cc1ccccc1-c1cc(-c2ccccn2)cn(-c2ccccn2)c1=O` [Example 159, 3-(2-Cyanophenyl)-1-(2-pyridyl)-5-(2-pyridyl)-1,2-dihydropyridin-2-one], the IC50 was 1600 nM.

As for `N#Cc1ccccc1-c1cc(-c2ccc(O)cn2)cn(-c2ccccc2)c1=O` [Example 163, 3-(2-Cyanophenyl)-5-(5-hydroxypyridin-2-yl)-1-phenyl-1,2-dihydropyridin-2-one], the concentration for half-maximal inhibition (IC50) was 8200 nM.

As for `O=c1c(-c2cccc(O)n2)cc(-c2ccccn2)cn1-c1ccccc1` [Example 165, 3-(2-Hydroxypyridin-6-yl)-1-phenyl-5-(2-pyridyl)-1,2-dihydropyridin-2-one], the IC50 is 400 nM.

With `N#Cc1ccccc1-c1cc(-c2ccccn2)cn(-c2ccc3nc(N)sc3c2)c1=O` [Example 166, 1-(2-Aminobenzothiazol-6-yl)-3-(2-cyanophenyl)-5-(2-pyridyl)-1,2-dihydropyridin-2-one], the IC50 stood at 300 nM.

Consider `N#Cc1ccccc1-c1cc(-c2ccccn2)cn(C2CCCC2)c1=O` [Example 171, 3-(2-Cyanophenyl)-1-cyclopentyl-5-(2-pyridyl)-1,2-dihydropyridin-2-one], for which the IC50 was 2300 nM.

On to `N#Cc1ccccc1-c1cc(-c2cccc[n+]2[O-])cn(-c2ccccc2)c1=O` [Example 173, 3-(2-Cyanophenyl)-5-(2-pyridyl 1-oxide)-1-phenyl-1,2-dihydropyridin-2-one], for which the IC50 was found to be 4200 nM.

Regarding `O=c1c(Nc2ccccc2)cc(-c2ccccn2)cn1-c1ccccc1` [Example 174, 3-Phenylamino-5-(2-pyridyl)-1-phenyl-1,2-dihydropyridin-2-one], the IC50 worked out at 3300 nM.

For `O=c1c(NC23CC4CC(CC(C4)C2)C3)cc(-c2ccccn2)cn1-c1ccccc1` [Example 176, 3-(1-Adamantylamino)-5-(2-pyridyl)-1-phenyl-1,2-dihydropyridin-2-one], the IC50 was found to be 5400 nM.

Consider `O=c1c(C23CC4CC(CC(C4)C2)C3)cc(-c2ccccn2)cn1-c1ccccc1` [Example 178, 3-(1-Adamantyl)-5-(2-pyridyl)-1-phenyl-1,2-dihydropyridin-2-one], for which the IC50 stood at 2000 nM.

As to `N#Cc1ccccc1-c1cc(-c2ccccn2)cn(C2=CCCN(Cc3ccccc3)C2)c1=O` [Example 180, 3-(2-Cyanophenyl)-5-(2-pyridyl)-1-(1-benzyl-1,2,3,6-tetrahydropyridin-5-yl)-1,2-dihydropyridin-2-one], the IC50 is 500 nM.

Take `N#Cc1ccccc1-c1cc(-c2nc3ccccc3n2-c2ccccc2)cn(-c2ccccc2)c1=O` [Example 182, 3-(2-Cyanophenyl)-5-(1-phenylbenzimidazol-2-yl)-1-phenyl-1,2-dihydropyridin-2-one]: the IC50 is 6000 nM.

For the compound `O=c1c(-c2ccccc2Cl)cc(-c2nc3ccccc3o2)cn1-c1ccccc1` [Example 184, 3-(2-Chlorophenyl)-5-(2-benzoxazolyl)-1-phenyl-1,2-dihydropyridin-2-one], the IC50 is 2300 nM.

Take `O=c1c(-c2ccccc2Cl)cc(COc2ccccc2)cn1-c1ccccc1` [Example 185, 3-(2-Chlorophenyl)-5-phenoxymethyl-1-phenyl-1,2-dihydropyridin-2-one]: the IC50 is 1700 nM.

As to `O=c1c(C=Cc2ccccn2)cc(-c2ccccn2)cn1-c1ccccc1` [Example 187, 3-(2-Pyridylethenyl)-5-(2-pyridyl)-1-phenyl-1,2-dihydropyridin-2-one], the IC50 came out at 6100 nM.

Regarding `O=c1c(Sc2ccc(Cl)cc2)cc(-c2ccccn2)cn1-c1ccccc1` [Example 188, 3-(4-Chlorophenylthio)-5-(2-pyridyl)-1-phenyl-1,2-dihydropyridin-2-one], the IC50 was determined as 8500 nM.

With `O=c1c(-c2nc3ccccc3[nH]2)cc(-c2ccccn2)cn1-c1ccccc1` [Example 190, 3-(1H-Benzimidazol-2-yl)-5-(2-pyridyl)-1-phenyl-1,2-dihydropyridin-2-one], the IC50 was 600 nM.

For the compound `O=c1c(C2CCCCC2)cc(-c2ccccn2)cn1-c1ccccc1` [Example 192, 3-Cyclohexyl-5-(2-pyridyl)-1-phenyl-1,2-dihydropyridin-2-one], the IC50 is 1100 nM.

As for `Cc1nc(-c2ccccc2-c2cc(-c3ccccn3)cn(-c3ccccc3)c2=O)no1` [Example 193, 3-[2-(5-Methyl-1,2,4-oxadiazol-3-yl)phenyl]-1-phenyl-5-(2-pyridyl)-1,2-dihydropyridin-2-one], the IC50 was determined as 400 nM.

Consider `Cc1cccc(-c2cc(-c3ccccc3C#N)c(=O)n(-c3ccccc3)c2)n1` [Example 195, 3-(2-Cyanophenyl)-5-(6-methylpyridin-2-yl)-1-phenyl-1,2-dihydropyridin-2-one], for which the IC50 amounted to 200 nM.

For `Cc1ccc(-c2cc(-c3ccccc3C#N)c(=O)n(-c3ccccc3)c2)nc1` [Example 196, 3-(2-Cyanophenyl)-5-(5-methylpyridin-2-yl)-1-phenyl-1,2-dihydropyridin-2-one], the IC50 is 300 nM.

As for `Cc1ccnc(-c2cc(-c3ccccc3C#N)c(=O)n(-c3ccccc3)c2)c1` [Example 197, 3-(2-Cyanophenyl)-5-(4-methylpyridin-2-yl)-1-phenyl-1,2-dihydropyridin-2-one], the IC50 was determined as 2900 nM.

With `N#Cc1ccccc1-c1cc(-c2ncccc2O)cn(-c2ccccc2)c1=O` [Example 198, 3-(2-Cyanophenyl)-5-(3-hydroxypyridin-2-yl)-1-phenyl-1,2-dihydropyridin-2-one], the IC50 is 300 nM.

Regarding `COc1ccc(-c2cc(-c3ccccc3C#N)c(=O)n(-c3ccccc3)c2)cn1` [Example 200, 3-(2-Cyanophenyl)-5-(2-methoxypyridin-5-yl)-1-phenyl-1,2-dihydropyridin-2-one], the IC50 came to 2000 nM.

As to `N#Cc1ccccc1-c1cc(-c2nccs2)cn(-c2ccccc2)c1=O` [Example 201, 3-(2-Cyanophenyl)-1-phenyl-5-(2-thiazoyl)-1,2-dihydropyridin-2-one], the IC50 worked out at 200 nM.

Take `N#Cc1ccccc1-c1cc(-c2ccncn2)cn(-c2ccccc2)c1=O` [Example 202, 3-(2-Cyanophenyl)-1-phenyl-5-(4-pyrimidinyl)-1,2-dihydropyridin-2-one]: the IC50 came to 700 nM.

With `N#Cc1ccccc1-c1cc(-c2cccnn2)cn(-c2ccccc2)c1=O` [Example 204, 3-(2-Cyanophenyl)-1-phenyl-5-(3-pyridazyl)-1,2-dihydropyridin-2-one], the IC50 amounted to 1600 nM.

Regarding `COc1cccc(-c2cc(-c3ccccc3C#N)c(=O)n(-c3ccccc3)c2)n1` [Example 206, 3-(2-Cyanophenyl)-5-(2-methoxypyridin-6-yl)-1-phenyl-1,2-dihydropyridin-2-one], the IC50 is 500 nM.

Turning to `N#Cc1ccccc1-c1cc(C2=COCCO2)cn(-c2ccccc2)c1=O` [Example 209, 3-(2-Cyanophenyl)-5-(5.6-dihydro-1.4-dioxin-2-yl)-1-phenyl-1,2-dihydropyridin-2-one], the IC50 amounted to 7000 nM.

As for `N#Cc1ccccc1-c1cc(-c2cccc3ccccc23)cn(-c2cccnc2)c1=O` [Example 210, 3-(2-Cyanophenyl)-5-(1-naphthyl)-1-(3-pyridyl)-1,2-dihydropyridin-2-one], the IC50 came to 5200 nM.

Take `N#Cc1ccccc1-c1cc(-c2ccc3ccccc3c2)cn(-c2cccnc2)c1=O` [Example 211, 3-(2-Cyanophenyl)-5-(2-naphthyl)-1-(3-pyridyl)-1,2-dihydropyridin-2-one]: the half-inhibitory concentration (IC50) is 3600 nM.

Take `N#Cc1ccccc1-c1cc(-c2ccccn2)cn(-c2ccc(N)cc2)c1=O` [Example 215, 1-(4-Aminophenyl)-3-(2-cyanophenyl)-5-(2-pyridyl)-1,2-dihydropyridin-2-one]: the IC50 worked out at 100 nM.

Regarding `N#Cc1ccccc1-c1cc(-c2ncccc2N)cn(-c2ccccc2)c1=O` [Example 216, 5-(3-Aminopyridin-2-yl)-3-(2-cyanophenyl)-1-phenyl-1,2-dihydropyridin-2-one], the IC50 turned out to be 2400 nM.

On to `N#Cc1ccccc1-c1cc(-c2ccc(N)cn2)cn(-c2ccccc2)c1=O` [Example 217, 5-(5-Aminopyridin-2-yl)-3-(2-cyanophenyl)-1-phenyl-1,2-dihydropyridin-2-one], for which the IC50 came out at 1300 nM.

With `N#Cc1ccccc1-c1cc(-c2ncccn2)cn(-c2cccc(N)c2)c1=O` [Example 218, 1-(3-Aminophenyl)-3-(2-cyanophenyl)-5-(2-pyrimidinyl)-1,2-dihydropyridin-2-one], the IC50 turned out to be 100 nM.

For `Nc1ccccc1-c1cc(-c2ccccn2)cn(-c2ccccc2)c1=O` [Example 219, 3-(2-Aminophenyl)-1-phenyl-5-(2-pyridyl)-1,2-dihydropyridin-2-one], the half-maximal inhibitory concentration (IC50) is 3700 nM.

For the compound `Nc1cccc(-c2cc(-c3ccccn3)cn(-c3ccccc3)c2=O)c1` [Example 220, 3-(3-Aminophenyl)-1-phenyl-5-(2-pyridyl)-1,2-dihydropyridin-2-one], the IC50 worked out at 600 nM.
